Laboratory results: ChEMBL document CHEMBL4043296 (J Med Chem, 2018)

What was measured:
[1] = molecular target: Sigma non-opioid intracellular receptor 1 (Cavia porcellus, UniProt Q60492); experiment: Displacement of [3H](+)-pentazocine from sigma1 receptor in Hartley guinea pig brain cortex after 120 mins by scintillation counting method
[2] = molecular target: T1, Alpha-1A adrenergic receptor (Homo sapiens, UniProt P35348); experiment: Displacement of [3H]prazosin from human recombinant alpha-1A adrenergic receptor expressed in CHO cell membranes after 30 mins by liquid scintillation counting method
T1 sequence (P35348 whole entry): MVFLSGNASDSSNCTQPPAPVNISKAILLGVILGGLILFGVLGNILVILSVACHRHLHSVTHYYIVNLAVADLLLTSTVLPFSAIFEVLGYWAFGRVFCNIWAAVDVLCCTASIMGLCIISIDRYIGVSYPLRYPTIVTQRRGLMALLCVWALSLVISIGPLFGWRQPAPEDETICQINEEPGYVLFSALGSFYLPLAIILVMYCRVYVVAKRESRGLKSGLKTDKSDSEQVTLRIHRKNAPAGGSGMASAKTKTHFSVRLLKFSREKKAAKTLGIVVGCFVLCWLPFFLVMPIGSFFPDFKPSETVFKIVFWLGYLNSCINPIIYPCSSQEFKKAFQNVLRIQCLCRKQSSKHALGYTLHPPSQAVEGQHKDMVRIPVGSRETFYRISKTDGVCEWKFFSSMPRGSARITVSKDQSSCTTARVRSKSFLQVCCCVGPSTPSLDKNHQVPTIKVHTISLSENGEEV

D(4) dopamine receptor [3] = molecular target: T2, D(4) dopamine receptor (Homo sapiens, UniProt P21917); experiment: Antagonist activity at human SP/Myc epitope-tagged dopamine D4 receptor expressed in HEK293T cells assessed as inhibition of dopamine-induced mVenus-fused beta-arrestin2 recruitment preincubated for 15 mins followed by dopamine induction measured after 2 mins by BRET assay; assay type: cell-based, HEK-293T
T2 sequence (P21917 whole entry): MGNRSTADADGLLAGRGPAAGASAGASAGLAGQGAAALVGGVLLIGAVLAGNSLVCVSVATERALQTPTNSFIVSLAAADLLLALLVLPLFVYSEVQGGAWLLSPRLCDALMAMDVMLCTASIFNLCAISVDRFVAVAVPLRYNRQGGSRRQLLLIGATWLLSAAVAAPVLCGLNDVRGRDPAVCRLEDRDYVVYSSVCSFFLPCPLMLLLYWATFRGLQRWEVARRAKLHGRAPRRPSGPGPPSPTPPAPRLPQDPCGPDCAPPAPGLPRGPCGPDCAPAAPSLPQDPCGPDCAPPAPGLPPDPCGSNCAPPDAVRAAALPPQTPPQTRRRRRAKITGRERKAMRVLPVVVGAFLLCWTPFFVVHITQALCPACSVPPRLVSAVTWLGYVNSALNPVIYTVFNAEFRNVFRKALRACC

D(4) dopamine receptor [4] = molecular target: T2, D(4) dopamine receptor; experiment: Antagonist activity at human SP/Myc epitope-tagged dopamine D4 receptor expressed in HEK293T cells assessed as inhibition of dopamine-induced RLuc8-fused Galphai1 activation preincubated for 15 mins followed by dopamine induction measured after 2 mins by BRET assay; assay type: cell-based, HEK-293T
[5] = molecular target: Beta-1 adrenergic receptor (Homo sapiens, UniProt P08588); experiment: Displacement of [3H]CGP12177 from human recombinant beta1 adrenergic receptor expressed in HEK293 cell membranes after 90 mins by beta counting method
Chain of Beta-1 adrenergic receptor (P08588 whole entry): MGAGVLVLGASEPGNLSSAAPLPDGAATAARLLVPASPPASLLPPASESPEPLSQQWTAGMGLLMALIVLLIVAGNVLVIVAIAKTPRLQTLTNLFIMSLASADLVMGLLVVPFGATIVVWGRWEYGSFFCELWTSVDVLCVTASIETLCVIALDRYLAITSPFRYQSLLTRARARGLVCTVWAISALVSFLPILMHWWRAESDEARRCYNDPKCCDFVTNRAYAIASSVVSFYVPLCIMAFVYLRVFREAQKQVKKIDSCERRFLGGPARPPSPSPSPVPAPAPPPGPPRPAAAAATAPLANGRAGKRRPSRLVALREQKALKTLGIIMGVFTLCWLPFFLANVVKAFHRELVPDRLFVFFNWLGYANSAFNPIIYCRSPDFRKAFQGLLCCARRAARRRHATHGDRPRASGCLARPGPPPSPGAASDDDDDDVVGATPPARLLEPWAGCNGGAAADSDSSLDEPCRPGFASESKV

[6] = molecular target: Beta-2 adrenergic receptor (Homo sapiens, UniProt P07550); experiment: Displacement of [3H]CGP12177 from human recombinant beta2 adrenergic receptor expressed in HEK293 cell membranes after 90 mins by beta counting method
Chain of Beta-2 adrenergic receptor (P07550 whole entry): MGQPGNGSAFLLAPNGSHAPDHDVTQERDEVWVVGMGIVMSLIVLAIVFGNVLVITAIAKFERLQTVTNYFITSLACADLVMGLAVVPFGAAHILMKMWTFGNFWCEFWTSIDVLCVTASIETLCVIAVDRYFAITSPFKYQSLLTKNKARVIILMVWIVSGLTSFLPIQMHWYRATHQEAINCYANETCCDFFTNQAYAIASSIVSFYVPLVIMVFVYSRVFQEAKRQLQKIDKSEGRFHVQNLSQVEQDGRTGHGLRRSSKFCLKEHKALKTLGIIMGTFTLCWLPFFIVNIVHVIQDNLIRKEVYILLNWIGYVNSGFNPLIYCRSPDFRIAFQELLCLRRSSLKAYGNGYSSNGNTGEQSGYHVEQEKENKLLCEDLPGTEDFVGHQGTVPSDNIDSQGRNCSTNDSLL

D(4) dopamine receptor [7] = molecular target: T2, D(4) dopamine receptor; experiment: Displacement of [3H]N-methylspiperone from human dopamine D4 receptor expressed in HEK293 cell membranes after 1 hr by scintillation counting method
Homo sapiens = species on record: Homo sapiens; experiment: Selectivity ratio of Ki for human dopamine D2 receptor to Ki for human dopamine D4 receptor
[8] = molecular target: T3, Alpha-1D adrenergic receptor (Homo sapiens, UniProt P25100); experiment: Displacement of [3H]prazosin from human recombinant alpha-1D adrenergic receptor expressed in CHO cell membranes after 30 mins by liquid scintillation counting method
T3 sequence (P25100 whole entry): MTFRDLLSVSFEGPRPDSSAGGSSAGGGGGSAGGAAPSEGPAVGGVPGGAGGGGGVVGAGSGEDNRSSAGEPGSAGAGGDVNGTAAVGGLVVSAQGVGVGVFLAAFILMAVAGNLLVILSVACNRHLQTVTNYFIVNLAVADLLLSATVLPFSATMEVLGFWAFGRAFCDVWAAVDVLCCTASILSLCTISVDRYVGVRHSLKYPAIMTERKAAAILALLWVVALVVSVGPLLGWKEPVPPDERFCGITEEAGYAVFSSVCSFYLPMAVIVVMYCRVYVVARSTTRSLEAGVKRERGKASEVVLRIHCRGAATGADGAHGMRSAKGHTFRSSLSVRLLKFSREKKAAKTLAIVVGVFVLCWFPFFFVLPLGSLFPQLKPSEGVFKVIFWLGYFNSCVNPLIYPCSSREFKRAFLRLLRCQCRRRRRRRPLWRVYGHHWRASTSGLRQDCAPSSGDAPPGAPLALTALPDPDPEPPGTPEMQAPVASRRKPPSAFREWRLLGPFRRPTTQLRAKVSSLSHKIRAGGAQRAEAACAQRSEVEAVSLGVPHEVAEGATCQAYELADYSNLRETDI

D(2) dopamine receptor = D(2) dopamine receptor (Homo sapiens, UniProt P14416); experiment: Displacement of [3H]N-methylspiperone from human dopamine D2 receptor expressed in HEK293 cell membranes after 1 hr by scintillation counting method
Chain of D(2) dopamine receptor (P14416 whole entry): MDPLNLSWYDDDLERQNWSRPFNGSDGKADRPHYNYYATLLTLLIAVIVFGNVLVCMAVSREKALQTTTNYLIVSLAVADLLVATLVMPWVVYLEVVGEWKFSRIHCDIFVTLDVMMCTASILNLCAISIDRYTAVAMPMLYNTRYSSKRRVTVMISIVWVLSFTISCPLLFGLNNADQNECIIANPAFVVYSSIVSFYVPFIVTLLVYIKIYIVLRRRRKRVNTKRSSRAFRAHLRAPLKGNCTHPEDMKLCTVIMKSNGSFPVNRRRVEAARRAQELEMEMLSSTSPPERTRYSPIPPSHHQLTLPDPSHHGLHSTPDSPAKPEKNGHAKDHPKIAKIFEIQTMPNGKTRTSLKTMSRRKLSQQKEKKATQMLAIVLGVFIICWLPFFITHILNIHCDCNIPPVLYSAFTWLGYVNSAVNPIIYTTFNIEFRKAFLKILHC

[9] = molecular target: T4, Alpha-1B adrenergic receptor (Homo sapiens, UniProt P35368); experiment: Displacement of [3H]prazosin from human recombinant alpha-1B adrenergic receptor expressed in CHO cell membranes after 30 mins by liquid scintillation counting method
T4 sequence (P35368 whole entry): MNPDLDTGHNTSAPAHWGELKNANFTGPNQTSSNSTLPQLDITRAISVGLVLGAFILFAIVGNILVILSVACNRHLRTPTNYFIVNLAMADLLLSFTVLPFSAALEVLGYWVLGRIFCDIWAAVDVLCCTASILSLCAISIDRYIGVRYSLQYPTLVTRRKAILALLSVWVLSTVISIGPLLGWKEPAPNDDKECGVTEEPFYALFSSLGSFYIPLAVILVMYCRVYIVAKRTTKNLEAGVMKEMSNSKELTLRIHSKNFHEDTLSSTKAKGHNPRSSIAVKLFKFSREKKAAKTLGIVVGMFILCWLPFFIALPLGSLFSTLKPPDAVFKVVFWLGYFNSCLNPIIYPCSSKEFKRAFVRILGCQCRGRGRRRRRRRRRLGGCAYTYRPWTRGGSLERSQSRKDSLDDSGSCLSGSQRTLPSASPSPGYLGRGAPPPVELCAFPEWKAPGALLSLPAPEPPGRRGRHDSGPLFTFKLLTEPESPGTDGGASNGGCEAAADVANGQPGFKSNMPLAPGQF

D(3) dopamine receptor = D(3) dopamine receptor (Homo sapiens, UniProt P35462); experiment: Displacement of [3H]N-methylspiperone from human dopamine D3 receptor expressed in HEK293 cell membranes after 1 hr by scintillation counting method
Chain of D(3) dopamine receptor (P35462 whole entry): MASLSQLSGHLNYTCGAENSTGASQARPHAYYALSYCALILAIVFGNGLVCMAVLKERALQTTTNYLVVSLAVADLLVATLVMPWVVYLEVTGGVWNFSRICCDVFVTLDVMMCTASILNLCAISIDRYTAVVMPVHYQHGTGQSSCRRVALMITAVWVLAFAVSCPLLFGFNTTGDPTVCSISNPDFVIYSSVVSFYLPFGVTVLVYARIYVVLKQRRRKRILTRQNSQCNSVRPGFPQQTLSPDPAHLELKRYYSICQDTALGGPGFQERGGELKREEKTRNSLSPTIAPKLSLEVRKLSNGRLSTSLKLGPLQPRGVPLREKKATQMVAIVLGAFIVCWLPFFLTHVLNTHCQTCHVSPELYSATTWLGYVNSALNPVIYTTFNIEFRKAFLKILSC

[10] = molecular target: Sodium-dependent serotonin transporter (Rattus norvegicus, UniProt P31652); experiment: Displacement of [3H]-citalopram from SERT in Sprague-Dawley rat midbrain after 60 mins by scintillation counting method
Chain of Sodium-dependent serotonin transporter (P31652 whole entry): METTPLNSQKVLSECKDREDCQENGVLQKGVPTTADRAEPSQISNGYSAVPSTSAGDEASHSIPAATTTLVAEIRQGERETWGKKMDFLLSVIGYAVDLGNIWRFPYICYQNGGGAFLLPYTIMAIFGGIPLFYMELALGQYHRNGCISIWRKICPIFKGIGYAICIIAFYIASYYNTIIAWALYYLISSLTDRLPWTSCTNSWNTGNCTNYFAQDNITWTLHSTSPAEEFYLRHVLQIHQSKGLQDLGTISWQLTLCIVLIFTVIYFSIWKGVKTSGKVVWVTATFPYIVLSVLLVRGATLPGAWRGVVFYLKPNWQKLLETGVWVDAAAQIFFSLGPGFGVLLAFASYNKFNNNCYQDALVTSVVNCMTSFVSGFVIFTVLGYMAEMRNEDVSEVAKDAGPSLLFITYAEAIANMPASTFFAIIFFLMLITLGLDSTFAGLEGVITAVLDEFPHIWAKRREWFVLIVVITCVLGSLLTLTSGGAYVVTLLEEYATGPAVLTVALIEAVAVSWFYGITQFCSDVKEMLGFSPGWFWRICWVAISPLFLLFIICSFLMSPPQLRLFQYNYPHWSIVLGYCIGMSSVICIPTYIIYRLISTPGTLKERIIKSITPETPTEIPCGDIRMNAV

[11] = molecular target: Sodium-dependent dopamine transporter (Rattus norvegicus, UniProt P23977); experiment: Displacement of [3H]WIN 35,428 from DAT in Sprague-Dawley rat striatum after 120 mins by scintillation counting method
Chain of Sodium-dependent dopamine transporter (P23977 whole entry, the tested form may be a part): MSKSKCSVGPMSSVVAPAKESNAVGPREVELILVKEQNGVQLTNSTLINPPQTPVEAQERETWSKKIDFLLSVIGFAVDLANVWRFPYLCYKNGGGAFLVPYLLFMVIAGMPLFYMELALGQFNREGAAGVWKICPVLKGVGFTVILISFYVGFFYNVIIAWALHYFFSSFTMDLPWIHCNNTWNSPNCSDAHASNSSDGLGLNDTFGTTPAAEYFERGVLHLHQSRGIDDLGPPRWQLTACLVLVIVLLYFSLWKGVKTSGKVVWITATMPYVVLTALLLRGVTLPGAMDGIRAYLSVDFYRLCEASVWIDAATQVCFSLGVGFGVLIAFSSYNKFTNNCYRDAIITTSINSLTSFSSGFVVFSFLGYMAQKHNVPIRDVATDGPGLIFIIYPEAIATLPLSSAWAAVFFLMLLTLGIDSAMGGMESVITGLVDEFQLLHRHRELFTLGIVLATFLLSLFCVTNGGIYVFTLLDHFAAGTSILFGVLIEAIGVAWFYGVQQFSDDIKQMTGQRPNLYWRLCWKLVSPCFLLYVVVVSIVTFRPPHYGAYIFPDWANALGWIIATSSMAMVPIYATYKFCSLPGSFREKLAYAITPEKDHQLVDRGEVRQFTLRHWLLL

[12] = molecular target: T5, Muscarinic acetylcholine receptor M4 (Homo sapiens) (UniProt P08173); experiment: Antagonist activity at human SP/Myc epitope-tagged muscarinic M4 receptor expressed in HEK293T cells assessed as inhibition of carbachol-induced RLuc8-fused Galphaq activation preincubated for 15 mins followed by carbachol induction measured after 2 mins by BRET assay; assay type: cell-based; settings: HEK-293T
T5 sequence (whole entry): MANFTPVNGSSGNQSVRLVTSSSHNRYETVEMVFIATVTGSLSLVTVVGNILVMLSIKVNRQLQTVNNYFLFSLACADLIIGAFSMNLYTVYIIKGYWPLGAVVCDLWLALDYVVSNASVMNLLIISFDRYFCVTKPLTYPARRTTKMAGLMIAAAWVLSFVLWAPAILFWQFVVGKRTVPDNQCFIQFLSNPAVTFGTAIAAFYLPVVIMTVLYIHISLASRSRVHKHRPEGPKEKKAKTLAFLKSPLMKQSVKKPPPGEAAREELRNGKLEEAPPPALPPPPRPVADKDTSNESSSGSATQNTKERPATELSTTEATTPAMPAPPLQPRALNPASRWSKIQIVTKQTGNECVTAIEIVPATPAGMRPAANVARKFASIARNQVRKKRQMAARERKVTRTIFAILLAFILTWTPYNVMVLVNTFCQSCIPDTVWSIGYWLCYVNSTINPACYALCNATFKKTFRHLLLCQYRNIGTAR

[13] = molecular target: T6, Muscarinic acetylcholine receptor M1 (Homo sapiens) (UniProt P11229); experiment: Antagonist activity at human SP/Myc epitope-tagged muscarinic M1 receptor expressed in HEK293T cells assessed as inhibition of carbachol-induced RLuc8-fused Galphaq activation preincubated for 15 mins followed by carbachol induction measured after 2 mins by BRET assay; assay type: cell-based; settings: HEK-293T
T6 sequence (whole entry): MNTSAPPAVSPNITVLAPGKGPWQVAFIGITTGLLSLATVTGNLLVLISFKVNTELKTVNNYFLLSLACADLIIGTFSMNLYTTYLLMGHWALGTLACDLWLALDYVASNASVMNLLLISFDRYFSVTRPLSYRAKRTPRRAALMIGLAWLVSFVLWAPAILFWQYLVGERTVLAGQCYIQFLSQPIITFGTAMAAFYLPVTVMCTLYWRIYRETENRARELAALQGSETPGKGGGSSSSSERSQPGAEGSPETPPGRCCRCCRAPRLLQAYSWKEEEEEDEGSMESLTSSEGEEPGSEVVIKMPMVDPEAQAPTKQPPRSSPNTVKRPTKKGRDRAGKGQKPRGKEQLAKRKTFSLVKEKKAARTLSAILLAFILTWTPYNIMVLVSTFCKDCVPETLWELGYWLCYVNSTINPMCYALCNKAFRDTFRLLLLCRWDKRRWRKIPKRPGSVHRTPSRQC

[14] = molecular target: T5, Muscarinic acetylcholine receptor M4 (Homo sapiens); experiment: Antagonist activity at human SP/Myc epitope-tagged muscarinic M4 receptor expressed in HEK293T cells assessed as inhibition of carbachol-induced mVenus-fused beta-arrestin2 recruitment preincubated for 15 mins followed by carbachol induction measured after 2 mins by BRET assay; assay type: cell-based; settings: HEK-293T
[15] = molecular target: T6, Muscarinic acetylcholine receptor M1 (Homo sapiens); experiment: Antagonist activity at human SP/Myc epitope-tagged muscarinic M1 receptor expressed in HEK293T cells assessed as inhibition of carbachol-induced mVenus-fused beta-arrestin2 recruitment preincubated for 15 mins followed by carbachol induction measured after 2 mins by BRET assay; assay type: cell-based; settings: HEK-293T

Chain of Sigma non-opioid intracellular receptor 1 (Q60492 whole entry): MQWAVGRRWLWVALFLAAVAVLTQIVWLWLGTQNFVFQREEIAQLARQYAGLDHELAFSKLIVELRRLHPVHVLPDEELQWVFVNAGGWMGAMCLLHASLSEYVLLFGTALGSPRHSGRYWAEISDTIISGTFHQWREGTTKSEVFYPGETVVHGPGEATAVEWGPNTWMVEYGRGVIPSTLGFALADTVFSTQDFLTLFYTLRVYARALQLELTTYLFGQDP

| Structure (SMILES) | Ki [1] [nM] | Ki [2] [nM] | IC50 (D(4) dopamine receptor [3]) [nM] | IC50 (D(4) dopamine receptor [4]) [nM] | Ki [5] [nM] | Ki [6] [nM] | Ki (D(4) dopamine receptor [7]) [nM] | Ratio Ki (Homo sapiens) | Ki [8] [nM] | Ki (D(2) dopamine receptor) [nM] | Ki [9] [nM] | Ki (D(3) dopamine receptor) [nM] | Ki [10] [nM] | Ki [11] [nM] | Imax [12] [%] | Imax [13] [%] | Imax [14] [%] | Imax [15] [%] |
| --- | --- | --- | --- | --- | --- | --- | --- | --- | --- | --- | --- | --- | --- | --- | --- | --- | --- | --- |
| CCCCC1CCN(CCCN2C(=O)CCc3ccccc32)CC1 | 7.24 | 437 | 6.03 | 117 | 47900 | 43700 | 0.977 | 691 | 1000 | 676 | 776 | 617 | 8910 | 3390 |  |  |  |  |
| CN1[C@@H]2C[C@@H](OC(=O)[C@H](CO)c3ccccc3)C[C@H]1[C@@H]1O[C@H]12 |  |  |  |  |  |  |  |  |  |  |  |  |  |  | 79 | 71 | 73 | 76 |
